For 16 compounds, IC50 results are on record in patent US20260132132A1, “3A,4,5,6-TETRAHYDRO-1 H-PYRAZOLO[3,4-C]PYRIDIN-7(7AH)-ONE DERIVATIVES AS FACTOR XIIA INHIBITORS” (KALVISTA PHARMACEUTICALS LIMITED, priority 2022, published 2026).

The target of assay [1] is FXa (Homo sapiens, UniProt P00742). Put plainly: Related protease inhibition: FXa, fluorogenic substrate. In kind it is biochemical. The conditions noted are these: fluorogenic substrate at Km, 25° C.; H1-H3 = % activity at 40 μM. The protocol:
Human serine protease enzyme Plasma Kallikrein, KLK1, FXa, Plasmin, Thrombin and Trypsin were assayed for enzymatic activity using an appropriate fluorogenic substrate at Km concentration, FXIa at fixed substrate concentration of 100 μM and various concentrations of the test compound.

Assay [2] addresses T1, Human Factor XIIa (hFXIIa) (Homo sapiens, UniProt P00748).
T1 construct: purchased Enzyme Research Laboratories
T1 sequence (P00748 373-615 limits assumed): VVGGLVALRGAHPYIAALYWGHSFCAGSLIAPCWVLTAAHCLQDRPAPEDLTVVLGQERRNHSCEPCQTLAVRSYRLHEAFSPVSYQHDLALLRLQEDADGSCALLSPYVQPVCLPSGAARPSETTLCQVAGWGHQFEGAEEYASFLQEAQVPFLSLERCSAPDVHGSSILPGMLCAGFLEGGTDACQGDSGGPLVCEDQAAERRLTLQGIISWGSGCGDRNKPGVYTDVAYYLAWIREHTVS
T1 sequence (P00748 20-372 partner limits assumed): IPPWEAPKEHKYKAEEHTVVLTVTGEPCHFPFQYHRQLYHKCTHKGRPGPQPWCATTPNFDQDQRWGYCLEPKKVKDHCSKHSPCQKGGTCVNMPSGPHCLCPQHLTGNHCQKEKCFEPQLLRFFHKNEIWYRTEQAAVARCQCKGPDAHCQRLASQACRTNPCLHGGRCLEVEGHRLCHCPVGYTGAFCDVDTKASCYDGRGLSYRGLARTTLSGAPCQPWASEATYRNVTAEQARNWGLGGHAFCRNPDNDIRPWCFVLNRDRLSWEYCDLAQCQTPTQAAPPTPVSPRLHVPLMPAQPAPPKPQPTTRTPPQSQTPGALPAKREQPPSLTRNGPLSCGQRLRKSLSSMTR
Put plainly: Determination of Human Factor XIIa (hFXIIa) inhibition, fluorogenic substrate IC50 assay. The format is biochemical. The conditions noted are these: fluorogenic substrate H-DPro-Phe-Arg-AFC at Km, 25° C., read-out: Human FXIIa IC50. The protocol:
Determination of Human Factor XIIa (hFXIIa) inhibition
The Km for the cleavage of the substrate by hFXIIa was determined by standard transformation of the Michaelis-Menten equation, with subsequent inhibition assays performed at substrate Km concentration.

Sequence of FXa (P00742 235-488 limits assumed): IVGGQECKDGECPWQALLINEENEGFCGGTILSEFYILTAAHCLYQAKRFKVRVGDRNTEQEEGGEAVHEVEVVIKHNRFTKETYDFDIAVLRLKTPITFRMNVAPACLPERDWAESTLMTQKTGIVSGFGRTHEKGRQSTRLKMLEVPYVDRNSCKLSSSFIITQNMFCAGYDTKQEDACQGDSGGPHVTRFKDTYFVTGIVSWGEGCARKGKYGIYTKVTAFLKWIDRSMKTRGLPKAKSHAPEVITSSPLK
Sequence of FXa (P00742 41-179 partner limits assumed): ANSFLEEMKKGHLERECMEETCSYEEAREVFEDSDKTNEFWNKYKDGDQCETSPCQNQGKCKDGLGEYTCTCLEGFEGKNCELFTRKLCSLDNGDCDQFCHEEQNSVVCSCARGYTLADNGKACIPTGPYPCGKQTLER

With `Cc1nc2c(C(=O)NCC3CC3)nn(-c3cccc(Cl)c3)c2c(=O)n1-c1ccc2c(c1)CN(CCO)CC2` [Example 3003, 1-(3-chlorophenyl)-N-(cyclopropylmethyl)-6-(2-(2-hydroxyethyl)-1,2,3,4-tetrahydroisoquinolin-7-yl)-5-methyl-7-oxo-6,7-dihydro-1H-pyrazolo[4,3-d]pyrimidine-3-carboxamide], the IC50 in assay [1] is above 40 µM; in assay [2], 0.1 to 0.3 µM.
The corresponding values for `Cc1cc(CNC(=O)c2nn(-c3cccc(Cl)c3)c3c2CCN(c2ccc4c(c2)C(=O)N(C)CC(=O)N4C)C3=O)n[nH]1` [Example 1370, 1-(3-chlorophenyl)-6-(1,4-dimethyl-2,5-dioxo-2,3,4,5-tetrahydro-1H-benzo[e][1,4]diazepin-7-yl)-N-((5-methyl-1H-pyrazol-3-yl)methyl)-7-oxo-4,5,6,7-tetrahydro-1H-pyrazolo[3,4-c]pyridine-3-carboxamide] are 10 to 40 µM and 0.3 to 1 µM.
On the same counts, the results for `CN1CCCc2ccc(N3CCc4c(C(=O)NCc5ccccc5)nn(-c5cccc(Cl)c5)c4C3=O)cc2C1` [Example 1030, N-benzyl-1-(3-chlorophenyl)-6-(2-methyl-2,3,4,5-tetrahydro-1H-benzo[c]azepin-8-yl)-7-oxo-4,5,6,7-tetrahydro-1H-pyrazolo[3,4-c]pyridine-3-carboxamide] are 3 to 10 µM and 0.1 to 0.3 µM.
The corresponding values for `O=C(NCc1ccn[nH]1)c1nn(-c2cccc(Cl)c2)c2c1CCN(c1ccc3c(c1)CN(CCO)CC3)C2=O` [Example 1089, N-((1H-pyrazol-5-yl)methyl)-1-(3-chlorophenyl)-6-(2-(2-hydroxyethyl)-1,2,3,4-tetrahydroisoquinolin-7-yl)-7-oxo-4,5,6,7-tetrahydro-1H-pyrazolo[3,4-c]pyridine-3-carboxamide] are 10 to 40 µM and 0.01 to 0.1 µM.
`Cc1ccc(CNC(=O)c2nn(-c3cccc(Cl)c3)c3c2CCN(c2ccc4c(c2)CN(CCO)CC4)C3=O)cn1` [Example 1147, 1-(3-chlorophenyl)-6-(2-(2-hydroxyethyl)-1,2,3,4-tetrahydroisoquinolin-7-yl)-N-((6-methylpyridin-3-yl)methyl)-7-oxo-4,5,6,7-tetrahydro-1H-pyrazolo[3,4-c]pyridine-3-carboxamide]: the IC50 was 10 to 40 µM in assay [1] and 0.01 to 0.1 µM in assay [2].
In the case of `CCNC(=O)c1nn(-c2ccc(C)cn2)c2c1CCN(c1ccc3c(c1)C(=O)N(C)CC3)C2=O` [Example 2028, N-ethyl-6-(2-methyl-1-oxo-1,2,3,4-tetrahydroisoquinolin-7-yl)-1-(5-methylpyridin-2-yl)-7-oxo-4,5,6,7-tetrahydro-1H-pyrazolo[3,4-c]pyridine-3-carboxamide], the values for the IC50 in assay [1] and in assay [2] were above 40 µM and 10 to 40 µM, respectively.
With `Cc1cn(C)nc1CNC(=O)c1nn(-c2cccc(Cl)c2)c2c1CCN(c1ccc3c(c1)C(=O)N(CCO)CC3)C2=O` [Example 1217, 1-(3-Chlorophenyl)-N-[(1,4-dimethylpyrazol-3-yl)methyl]-6-[2-(2-hydroxyethyl)-1-oxo-3,4-dihydroisoquinolin-7-yl]-7-oxo-4,5-dihydropyrazolo[3,4-c]pyridine-3-carboxamide], the IC50 in assay [1] was 10 to 40 µM; in assay [2], 0.01 to 0.1 µM.
As for `CCN1CCc2cnc(N3CCc4c(C(=O)NCC5CC5)nn(-c5cccc(Cl)c5)c4C3=O)cc2C1` [Example 1117, 1-(3-Chlorophenyl)-N-(cyclopropylmethyl)-6-(6-ethyl-5,6,7,8-tetrahydro-2,6-naphthyridin-3-yl)-7-oxo-4,5,6,7-tetrahydro-1H-pyrazolo[3,4-c]pyridine-3-carboxamide], the IC50 fell in the range of 10 to 40 µM in assay [1] and 0.1 to 0.3 µM in assay [2].
As to `CS(=O)(=O)CCN1CCc2ccc(N3CCc4c(C(=O)NCC5CC5)nn(-c5cccc(Cl)c5)c4C3=O)cc2C1` [Example 1176, 1-(3-chlorophenyl)-N-(cyclopropylmethyl)-6-(2-(2-(methylsulfonyl)ethyl)-1,2,3,4-tetrahydroisoquinolin-7-yl)-7-oxo-4,5,6,7-tetrahydro-1H-pyrazolo[3,4-c]pyridine-3-carboxamide], the concentration for half-maximal inhibition (IC50) in assay [1] is above 40 µM; in assay [2], 0.3 to 1 µM.
For the compound `CCN1Cc2cc(N3CCc4c(C(=O)NCc5cnccc5C)nn(-c5cccc(Cl)c5)c4C3=O)ccc2[C@@H](C)C1` [Example 1158, (R)-1-(3-chlorophenyl)-6-(2-ethyl-4-methyl-1,2,3,4-tetrahydroisoquinolin-7-yl)-N-((4-methylpyridin-3-yl)methyl)-7-oxo-4,5,6,7-tetrahydro-1H-pyrazolo[3,4-c]pyridine-3-carboxamide], the IC50 was in the range of 10 to 40 µM in assay [1] and 0.01 to 0.1 µM in assay [2].
The corresponding values for `Cc1cc(CNC(=O)c2nn(-c3cccc(Cl)c3)c3c2CCN(c2ccc4c(c2)C(=O)N(CC(F)F)CCO4)C3=O)n[nH]1` [Example 1382, 1-(3-chlorophenyl)-6-(4-(2,2-difluoroethyl)-5-oxo-2,3,4,5-tetrahydrobenzo[f][1,4]oxazepin-7-yl)-N-((5-methyl-1H-pyrazol-3-yl)methyl)-7-oxo-4,5,6,7-tetrahydro-1H-pyrazolo[3,4-c]pyridine-3-carboxamide] are 3 to 10 µM and 0.01 to 0.1 µM.
`CN1CCc2ccc(N3CCc4c(C(=O)NCC5CCOC5)nn(-c5cccc(Cl)c5)c4C3=O)cc2C1=O` (centres unmarked) [Example 1198, 1-(3-chlorophenyl)-6-(2-methyl-1-oxo-1,2,3,4-tetrahydroisoquinolin-7-yl)-7-oxo-N-((tetrahydrofuran-3-yl)methyl)-4,5,6,7-tetrahydro-1H-pyrazolo[3,4-c]pyridine-3-carboxamide]: the results for the IC50 in assay [1] and in assay [2] were above 40 µM and 0.3 to 1 µM, respectively.
On the same counts, the results for `CCNC(=O)c1nn(-c2cc(Cl)ccc2C)c2c1CCN(c1ccc3c(c1)C(=O)N(C)CC3)C2=O` [Example 2029, 1-(5-chloro-2-methylphenyl)-N-ethyl-6-(2-methyl-1-oxo-1,2,3,4-tetrahydroisoquinolin-7-yl)-7-oxo-4,5,6,7-tetrahydro-1H-pyrazolo[3,4-c]pyridine-3-carboxamide] are above 40 µM and 10 to 40 µM.
On the same counts, the results for `CN1CCc2ccc(N3CCc4c(C(=O)NC5COCC5O)nn(-c5cccc(Cl)c5)c4C3=O)cc2C1=O` (centres unmarked) [Example 1179, 1-(3-chlorophenyl)-N-(4-hydroxytetrahydrofuran-3-yl)-6-(2-methyl-1-oxo-1,2,3,4-tetrahydroisoquinolin-7-yl)-7-oxo-4,5,6,7-tetrahydro-1H-pyrazolo[3,4-c]pyridine-3-carboxamide] are above 40 µM and 0.3 to 1 µM.
The corresponding values for `CN1CCc2ccc(N3CCc4c(C(=O)NCC5CC5)nn(-c5cccc(C(N)=O)c5)c4C3=O)cc2C1=O` [Example 2006, 1-(3-carbamoylphenyl)-N-(cyclopropylmethyl)-6-(2-methyl-1-oxo-1,2,3,4-tetrahydroisoquinolin-7-yl)-7-oxo-4,5,6,7-tetrahydro-1H-pyrazolo[3,4-c]pyridine-3-carboxamide] are above 40 µM and 10 to 40 µM.
With `Cn1cc(Cl)c(CNC(=O)c2nn(-c3cccc(Cl)c3)c3c2CCN(c2ccc4c(c2)CN(CCO)CC4)C3=O)n1` [Example 1155, N-((4-chloro-1-methyl-1H-pyrazol-3-yl)methyl)-1-(3-chlorophenyl)-6-(2-(2-hydroxyethyl)-1,2,3,4-tetrahydroisoquinolin-7-yl)-7-oxo-4,5,6,7-tetrahydro-1H-pyrazolo[3,4-c]pyridine-3-carboxamide], the results for the IC50 in assay [1] and in assay [2] were 10 to 40 µM and 0.01 to 0.1 µM, respectively.
